# Literature values in patent US20050042268A1, “Pharmaceutical composition and method for transdermal drug delivery” (priority 2003, published 2005).
compound,measurement,value
C[C@]12CC[C@H]3[C@@H](CCC4=CC(=O)CC[C@@]43C)[C@@H]1CC[C@@H]2O [testosterone],free testosterone as part of the total concentration in the blood,4 to 8%
same,testosterone in the blood bound to protein,Over 90%
